Read-outs that look alike come from different tables or passages of the source.
How the values were obtained:
[1] = test system: human cervix cancer cells Hela; assay: Plk Cell Proliferation Inhibition Assay (CCK8, 72 hours); assay type: cell-based; details: Hela cells highly expressing Plk
Source text: The following in vitro assay is to determine the activity of the compounds of the present invention for inhibiting the proliferation of human cervix cancer cells Hela, which has high expression of Plk.
The in vitro cellular assay described here is to determine the activity of the tested compounds for inhibiting the proliferation of cancer cells, which has high expression of Plk. The activity is represented by the […]. The general procedures for the assay are given as follows: The Hela cells highly expressing Plk (Institute of biochemistry and cell biology) were seeded to 96-well cell culture plate at a suitable concentration (exp 3000 cells/ml medium). The cells then were cultured in carbon dioxide (CO2) incubator and grew overnight. Then, the cell culture medium was replaced by fresh one with tested compounds added in it at serial concentrations (general 7 to 9 concentrations). Then the cells were put back to the incubator and cultured for continuous 72 hours. 72 hours later, the activity of the tested compounds for inhibiting the cell proliferation was determined by using CCK8 (cell counting kit-8, Dojindo, NO:CK04) method. IC50 value on tested cells were calculated by the data of inhibition rates of serial concentrations of the tested compounds.

[2] = Pharmacokinetics assay in rats (plasma concentration by LC/MS/MS); assay type: in vivo; details: SD rats, 25 mg/kg; for AUC: read-out: Area Under Curve AUC; for half-life: read-out: Half-Life t½ (converted); for MRT: read-out: Mean Residence Time MRT
Protocol: The compound 37 of the present invention was administrated intravenous injection or intragastrically to rats to determine the drug concentration in plasma at different time points by LC/MS/MS method. The pharmacokinetic behavior of the compounds of the present invention was studied and evaluated in rats.
The right amount of tested compound was dissolved in 0.5 mL of DMSO, added with 1.5 mL of 0.1 M HCl, then diluted with normal saline to 2.5 mg/mL of suspension before use.
8 Healthy adult adult SD rats, male and female in half, were divided into 2 groups. After an overnight fast, the rats were administered intragastrically or administered via tail intravenous injection at a dose of 25.0 mg/kg.
25 μL of rat plasmas taken at various time points after administration were mixed with 20 μL of internal standard solution and 150 μL methanol for 3 minutes by using a vortexer and the mixture was centrifuged for 10 minutes at 13,500 rpm. 5 μL of the supernatant was analyzed by LC-MS/MS.
Plasma concentration was used as the abscissa, the ratio of chromatographic peak area between the sample and internal standard was used as the ordinate, the linear regression was carried out by the weighted least square method (w=1/x^2). The main pharmacokinetic parameters were calculated by DAS 2.0 software.

[3] = test system: xenografts of HT-116 human colon cancer; assay: Therapeutic effects against xenografts of HT-116 human colon cancer in nude mice; assay type: in vivo; details: nude mice bearing HT-116 xenografts
Protocol: The therapeutic effect of Example 1 against xenografts of HT-116 human colon cancer in nude mice was estimated.
Preparation method: the compound of Example 1 was prepared to corresponding concentration by using normal saline.
BALB/cA-nude mice, 6 to 7 weeks old, ♀, purchased from Slaccas Experimental Animal LTD., CO.
Nude mice were hypodermic inoculated HT-116 human colon cancer cell. After tumors grew to 60-150 mm^3, mice were randomly divided into teams (d0).
The volume of tumors and the weigh of the mice were measured and recorded for 2-3 times per week.
The calculation formula of the volume of tumor (V) is: V=½×a×b^2, a: length of tumor, b: width of tumor.

[4] = both sexes, rat, plasma, po, intragastric administration
[5] = both sexes, rat, plasma, intravenous injection

Row | Clearance CL/F ([2]; intravenous injection) [mL/min/kg] | bioavailability ([2]; both sexes, rat, plasma, oral, intragastric vs intravenous, read-out: oral bioavailability F) [%] | Vd/F ([2]; both sexes, rat, plasma, po, intragastric administration, read-out: Apparent Distribution Volume Vz/F) [L/kg] | AUC [2, 4] [ng·h/mL] | CL/F ([2]; both sexes, rat, plasma, po, intragastric administration, read-out: Clearance CL/F (converted)) [mL/min/kg] | half-life [2, 4] [h] | MRT [2, 4] [h] | Cmax ([2]; both sexes, rat, plasma, po, intragastric administration, read-out: Plasma Conc. Cmax) [ng/mL] | AUC [2, 5] [ng·h/mL] | half-life [2, 5] [h] | MRT [2, 5] [h] | Compound | IC50 [1] [nM] | toxicity (in words) [3]
1 | 5.5 ± 0.5 | 59.4 | 13.6 ± 1 | 45600 ± 9230 | 9.5 | 17.2 ± 4.4 | 26.1 ± 5 | 1860 ± 150 | 76700 ± 6200 | 17.3 ± 3.3 | 22.8 ± 4.3 | CC[C@@H]1C(=O)N(C)c2cnc(Nc3ccc(C(=O)N[C@H]4CC[C@H](N5CCN(CC6CC6)CC5)CC4)c4c3OCC4)nc2N1C(C)C [Example 37, N-[(trans)-4-[4-(Cyclopropylmethyl)piperazin-1-yl]cyclohexyl]-7-[[(7R)-7-ethyl-8-isopropyl-5-methyl-6-oxo-7H-pteridin-2-yl]amino]-2,3-dihydrobenzofuran-4-carboxamide] | 0.7 | –
2 | – | – | – | – | – | – | – | – | – | – | – | CC[C@@H]1C(=O)N(C)c2cnc(Nc3ccc(C(=O)NC4CCN(C)CC4)c4c3OCC4)nc2N1C1CCCC1 [Example 1, 7-[[(7R)-8-Cyclopentyl-7-ethyl-5-methyl-6-oxo-7H-pteridin-2-yl]amino]-N-(1-methyl-piperidyl)-2,3-dihydrobenzofuran-4-carboxamide] | 0.9 | less toxity

— US8691822B2, “Dihydropteridinone derivatives, preparation process and pharmaceutical use thereof” (Jiangsu Hengrui Medicine Co., Ltd., priority 2009, dated 2014)
